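Tested at 5 concentrations; 48 h exposure; 96-well plates; endpoints linearly interpolated, else capped at highest concentration. The concentration for 50% growth inhibition is given as GI50.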 The source made the active and inactive calls. No stated cut-off is given here; in the data, active = GI50 up to about 1.1 µM and inactive = higher. *1 amine or outer side, *2 acyl side, *3 side chain or, on linkers, in order; H or OH if unused. Where a SMILES comes first, the peptide text is derived from it. Bridges are numbered along the chain shown (N, C = ends). Roman numbers before positions name the chains, in order. [ ]: non-standard residue; d: D form. Actinocin(9to1) = Cc1c2oc3c(C)ccc(C(=O)[*:1])c3nc-2c(C(=O)[*:2])c(N)c1=O; NMeV = CN[CH](C(=O)O)C(C)C; Sar = CNCC(=O)O
Tests used:
Assay in all cases: NCI-60 cell line screen, 48 h
A549 = test system: A549
CCRF-CEM = test system: CCRF-CEM
EKVX = test system: EKVX
HCT-15 = test system: HCT-15
HL-60 = test system: HL-60
HOP-62 = test system: HOP-62
K562 = test system: K562
KM12 = test system: KM12
MOLT-4 = test system: MOLT-4
Malme-3M = test system: Malme-3M
NCI-H23 = test system: NCI-H23
NCI/ADR-RES = test system: NCI/ADR-RES
OVCAR-8 = test system: OVCAR-8
PC-3 = test system: PC-3
SF-295 = test system: SF-295
SK-MEL-2 = test system: SK-MEL-2
SNB-75 = test system: SNB-75
SR = test system: SR
SW-620 = test system: SW-620
UACC-257 = test system: UACC-257

Structure (SMILES) | GI50 (A549) | GI50 (CCRF-CEM) | GI50 (EKVX) | GI50 (HCT-15) [µM] | GI50 (HL-60) | GI50 (HOP-62) | GI50 (K562) | GI50 (KM12) | GI50 (MOLT-4) | GI50 (Malme-3M) | GI50 (NCI-H23) | GI50 (NCI/ADR-RES) | GI50 (OVCAR-8) | GI50 (PC-3) | GI50 (SF-295) | GI50 (SK-MEL-2) | GI50 (SNB-75) | GI50 (SR) | GI50 (SW-620) | GI50 (UACC-257)
CC(=O)CC(=O)c1cc2c(=O)oc(C)cc2oc1=O | > 37.5 µM (inactive) | > 37.5 µM (inactive) | > 37.5 µM (inactive) | > 37.5 | > 37.5 µM (inactive) | > 37.5 µM (inactive) | > 37.5 µM (inactive) | > 37.5 µM (inactive) | > 37.5 µM (inactive) | > 37.5 µM (inactive) | > 37.5 µM (inactive) | > 37.5 µM (inactive) | > 37.5 µM (inactive) | > 37.5 µM (inactive) | > 37.5 µM (inactive) | > 37.5 µM (inactive) | 2.75 µM (inactive) | > 37.5 µM (inactive) | > 37.5 µM (inactive) | > 37.5 µM (inactive)
O=c1[nH]nc(Cc2ccc(Cl)cc2)n1/N=C/c1ccc([N+](=O)[O-])o1 | 3.42 µM (inactive) | 1.76 µM (inactive) | 4.63 µM (inactive) | 2.21 | 1.87 µM (inactive) | 2.77 µM (inactive) | 2.58 µM (inactive) | 2.03 µM (inactive) | 1.55 µM (inactive) | 1.46 µM (inactive) | 3.34 µM (inactive) | 3.16 µM (inactive) | 1.99 µM (inactive) | 3.08 µM (inactive) | 2.77 µM (inactive) | 3.38 µM (inactive) | 7.13 µM (inactive) | 2.17 µM (inactive) | 2.92 µM (inactive) | 2.77 µM (inactive)
Cc1cccc2c1C(=O)[C@](C)([C@]1(C)Nc3cccc(C)c3C1=O)N2 | 26.4 µM (inactive) | 17.6 µM (inactive) | 23.7 µM (inactive) | 18.2 | < 0.01 µM (active) | 23.3 µM (inactive) | 30.8 µM (inactive) | 35.6 µM (inactive) | 23.3 µM (inactive) | 36.3 µM (inactive) | 25.6 µM (inactive) | 27.7 µM (inactive) | 24 µM (inactive) | 14.4 µM (inactive) | 20.8 µM (inactive) | 24 µM (inactive) | 11 µM (inactive) | 17.7 µM (inactive) | 30.7 µM (inactive) | 30.8 µM (inactive)
Cn1ccnc1Sc1ccc(/C=N/NC(=O)c2ccccc2[N+](=O)[O-])cc1[N+](=O)[O-] | > 100 µM (inactive) | 42.7 µM (inactive) | 40.9 µM (inactive) | 45.7 | 47.1 µM (inactive) | > 100 µM (inactive) | 40.5 µM (inactive) | 49.9 µM (inactive) | 41.2 µM (inactive) | 54.6 µM (inactive) | 58.6 µM (inactive) | > 100 µM (inactive) | > 100 µM (inactive) | 76 µM (inactive) | 83.8 µM (inactive) | 29 µM (inactive) | > 100 µM (inactive) | 36.1 µM (inactive) | 98.2 µM (inactive) | 87.5 µM (inactive)
C#CCOC(=O)C(N)CC(N)=O (stereo not given) | > 100 µM (inactive) | > 100 µM (inactive) | > 100 µM (inactive) | > 100 | > 100 µM (inactive) | > 100 µM (inactive) | 21.2 µM (inactive) | > 100 µM (inactive) | > 100 µM (inactive) | > 100 µM (inactive) | > 100 µM (inactive) | > 100 µM (inactive) | > 100 µM (inactive) | > 100 µM (inactive) | > 100 µM (inactive) | > 100 µM (inactive) | > 100 µM (inactive) | > 100 µM (inactive) | > 100 µM (inactive) | > 100 µM (inactive)
Clc1ccc(Cc2nc3ccccc3o2)cc1 | 75 µM (inactive) | 40.1 µM (inactive) | 40.1 µM (inactive) | 39.3 | 40.2 µM (inactive) | > 100 µM (inactive) | 50.7 µM (inactive) | 69.8 µM (inactive) | 38.5 µM (inactive) | > 100 µM (inactive) | 56 µM (inactive) | 42 µM (inactive) | > 100 µM (inactive) | 55.8 µM (inactive) | 57.8 µM (inactive) | > 100 µM (inactive) | 20 µM (inactive) | 50.5 µM (inactive) | > 100 µM (inactive) | 52.1 µM (inactive)
O=c1ssc(Cl)c1Cl | > 10 µM (inactive) | 1.63 µM (inactive) | > 10 µM (inactive) | > 10 | 2.47 µM (inactive) | > 10 µM (inactive) | 3.23 µM (inactive) | > 10 µM (inactive) | 2.39 µM (inactive) | > 6.11 µM (inactive) | > 10 µM (inactive) | > 10 µM (inactive) | > 10 µM (inactive) | > 10 µM (inactive) | > 10 µM (inactive) | > 10 µM (inactive) | > 10 µM (inactive) | > 10 µM (inactive) | 3.55 µM (inactive) | > 7.19 µM (inactive)
O=C(NCCCl)Nc1ccccc1 | > 100 µM (inactive) | > 100 µM (inactive) | > 100 µM (inactive) | > 100 | > 100 µM (inactive) | > 100 µM (inactive) | > 100 µM (inactive) | > 100 µM (inactive) | > 100 µM (inactive) | > 100 µM (inactive) | > 100 µM (inactive) | > 100 µM (inactive) | > 100 µM (inactive) | > 100 µM (inactive) | > 100 µM (inactive) | > 100 µM (inactive) | > 100 µM (inactive) | > 100 µM (inactive) | > 100 µM (inactive) | > 100 µM (inactive)
CC(=O)OCC1OC(n2c(C)c(C(C)=O)c(-c3cccc4ccccc34)c(C#N)c2=S)C(OC(C)=O)C(OC(C)=O)C1OC(C)=O (stereo not given) | > 100 µM (inactive) | > 100 µM (inactive) | > 100 µM (inactive) | > 100 | > 100 µM (inactive) | > 100 µM (inactive) | > 100 µM (inactive) | > 100 µM (inactive) | > 100 µM (inactive) | > 100 µM (inactive) | > 100 µM (inactive) | > 100 µM (inactive) | > 100 µM (inactive) | > 100 µM (inactive) | > 100 µM (inactive) | > 100 µM (inactive) | 25.9 µM (inactive) | > 100 µM (inactive) | > 100 µM (inactive) | > 100 µM (inactive)
COc1cc(O)c2c(c1)C(O)C(O)CC1OC1C(=O)/C=C/CC(C)OC2=O (stereo not given) | 20.5 µM (inactive) | 1.26 µM (inactive) | 8.53 µM (inactive) | 2.93 | 0.216 µM (active) | 18 µM (inactive) | 1.7 µM (inactive) | 10.4 µM (inactive) | 2.03 µM (inactive) | 0.029 µM (active) | 2.1 µM (inactive) | 3.68 µM (inactive) | 4.13 µM (inactive) | 11.6 µM (inactive) | 15.6 µM (inactive) | 2.72 µM (inactive) | 6.65 µM (inactive) | 2.7 µM (inactive) | 0.412 µM (active) | 0.0849 µM (active)
Cc1c2oc3c(C)ccc(C(=O)NC4C(=O)NC(C(C)C)C(=O)N5CCCC5C(=O)N(C)CC(=O)N(C)C(C(C)C)C(=O)OC4C)c3nc-2c(C(=O)NC2C(=O)NC(C(C)C)C(=O)N3CCCC3C(=O)N(C)CC(=O)N(C)C(C(C)C)C(=O)OC2C)c(N)c1=O (stereo not given) (I: TVP[Sar][NMeV] / II: TVP[Sar][NMeV]; ester I:1-I:C, II:1-II:C; linker I:N-II:N via Actinocin(9to1); configuration not given here) | 0.000199 µM (active) | < 0.0001 µM (active) | 0.00416 µM (active) | 0.0123 | 0.00017 µM (active) | 0.000486 µM (active) | < 0.0001 µM (active) | < 0.0001 µM (active) | < 0.0001 µM (active) | 0.000273 µM (active) | 0.000556 µM (active) | 0.0499 µM (active) | 0.000212 µM (active) | 0.000428 µM (active) | 0.000522 µM (active) | < 0.0001 µM (active) | < 0.0001 µM (active) | < 0.0001 µM (active) | 0.000698 µM (active) | 0.000957 µM (active)
O=C1c2ccccc2-c2c1c1ccccc1c(=O)n2-c1cccnc1 | 11.5 µM (inactive) | > 10 µM (inactive) | > 44.2 µM (inactive) | 24.9 | > 10 µM (inactive) | 12.1 µM (inactive) | > 60.3 µM (inactive) | > 100 µM (inactive) | 3.78 µM (inactive) | > 95.3 µM (inactive) | 37.8 µM (inactive) | 45.8 µM (inactive) | 31.8 µM (inactive) | > 54.3 µM (inactive) | 27 µM (inactive) | > 100 µM (inactive) | 49.1 µM (inactive) | 5.53 µM (inactive) | 20.2 µM (inactive) | > 100 µM (inactive)
Cc1c2oc3c(C)cnc(C(=O)NC4C(=O)NC(C(C)C)C(=O)N5CCCC5C(=O)N(C)CC(=O)N(C)C(C(C)C)C(=O)OC4C)c3nc-2c(C(=O)NC2C(=O)NC(C(C)C)C(=O)N3CCCC3C(=O)N(C)CC(=O)N(C)C(C(C)C)C(=O)OC2C)c(N)c1=O (stereo not given) | 3.37 µM (inactive) | 0.121 µM (active) | 15.4 µM (inactive) | 21 | 0.769 µM (active) | 3.05 µM (inactive) | 0.231 µM (active) | 5.94 µM (inactive) | 0.138 µM (active) | 1.28 µM (inactive) | 3.24 µM (inactive) | > 61 µM (inactive) | 5.57 µM (inactive) | 2.67 µM (inactive) | 5.45 µM (inactive) | 0.431 µM (active) | 6.41 µM (inactive) | 0.575 µM (active) | 0.346 µM (active) | 4.58 µM (inactive)

— ChEMBL document CHEMBL1201862, “PubChem BioAssay data set” (2004)
